Measured values as given in US20200131142A1, “FARNESOID X RECEPTOR AGONISTS AND USES THEREOF” (Metacrine, Inc., priority 2017, published 2020).

molecular target: T1, hFXR (Homo sapiens, UniProt Q96RI1); test: In Vitro FXR Assay (TK): hFXR/hRXR TK-ECRE-luc reporter in transfected CV-1 cells; assay type: cell-based; settings: 18 hrs incubation, luminescence, compounds with maximum efficacy <25% of the Fexarmine control classified as '+'
T1 construct: expressed in transfected cells; host or cells: CV-1 cells
T1 sequence (Q96RI1 1-486): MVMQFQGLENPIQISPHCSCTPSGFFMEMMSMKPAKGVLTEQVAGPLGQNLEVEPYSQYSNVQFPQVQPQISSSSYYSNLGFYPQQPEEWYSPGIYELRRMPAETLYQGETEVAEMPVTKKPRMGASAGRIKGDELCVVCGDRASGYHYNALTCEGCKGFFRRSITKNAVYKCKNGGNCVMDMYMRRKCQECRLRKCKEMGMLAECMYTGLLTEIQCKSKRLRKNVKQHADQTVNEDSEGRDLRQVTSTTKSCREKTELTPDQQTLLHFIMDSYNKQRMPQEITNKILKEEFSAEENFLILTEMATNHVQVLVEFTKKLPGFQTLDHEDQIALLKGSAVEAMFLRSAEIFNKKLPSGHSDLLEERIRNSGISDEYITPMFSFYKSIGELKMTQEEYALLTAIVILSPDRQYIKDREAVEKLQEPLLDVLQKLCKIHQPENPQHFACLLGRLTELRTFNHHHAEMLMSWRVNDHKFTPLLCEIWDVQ
T1 sequence (P19793 1-462 partner): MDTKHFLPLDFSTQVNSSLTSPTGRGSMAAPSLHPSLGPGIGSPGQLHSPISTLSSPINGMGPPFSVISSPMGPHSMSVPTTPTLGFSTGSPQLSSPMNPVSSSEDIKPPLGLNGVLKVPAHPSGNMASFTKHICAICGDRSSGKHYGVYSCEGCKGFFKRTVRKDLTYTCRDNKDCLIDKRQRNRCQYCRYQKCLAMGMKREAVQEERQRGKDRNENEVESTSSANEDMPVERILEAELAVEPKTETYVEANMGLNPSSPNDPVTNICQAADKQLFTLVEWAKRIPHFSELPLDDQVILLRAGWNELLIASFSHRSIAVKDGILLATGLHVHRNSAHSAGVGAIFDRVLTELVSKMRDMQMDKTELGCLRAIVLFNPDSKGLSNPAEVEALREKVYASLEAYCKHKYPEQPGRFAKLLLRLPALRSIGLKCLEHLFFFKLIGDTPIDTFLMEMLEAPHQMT
Procedure, shortened: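 Reporter gene assay: CV-1 cells co-expressing hFXR, hRXR, TK-ECRE-luc and pCMX-YFP after overnight transfection in charcoal-stripped serum. Treatment with serially diluted compounds lasted 18 hrs at 37 °C, followed by cell lysis and a luminescence measurement.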

| Structure (SMILES) | EC50 [µM] |
| --- | --- |
| COc1ncc(-c2cccc(N(C[C@H]3CC[C@H](c4ccc(OC)c(C)c4)CC3)C(=O)C3CCOCC3)c2)s1 [Compound 9.30, N-((trans-4-(4-Methoxy-3-methylphenyl)cyclohexyl)methyl)-N-(3-(2-methoxythiazol-5-yl)phenyl)tetrahydro-2H-pyran-4-carboxamide] | ≤ 0.25 |
| COc1ccc([C@H]2CC[C@H](CN(c3cc(-c4cnc(C5CC5)s4)ccn3)C(=O)[C@H]3CC[C@H](O)CC3)CC2)cc1C#N [Compound 9.22, trans-N-((trans-4-(3-Cyano-4-methoxyphenyl)cyclohexyl)methyl)-N-(4-(2-cyclopropylthiazol-5-yl)pyridin-2-yl)-4-hydroxycyclohexanecarboxamide] | ≤ 0.25 |
| Cn1nc(F)c2cc([C@H]3CC[C@H](CN(c4cccc(-c5cnc(C6CC6)s5)c4)C(=O)[C@H]4CC[C@H](O)CC4)CC3)ccc21 [Compound 9, trans-N-(3-(2-Cyclopropylthiazol-5-yl)phenyl)-N-((trans-4-(3-fluoro-1-methyl-1H-indazol-5-yl)cyclohexyl)methyl)-4-hydroxycyclohexanecarboxamide] | ≤ 0.25 |
| COc1ccc([C@H]2CC[C@H](CN(c3cccc(-c4cnc(C5CC5)s4)c3)C(=O)[C@H]3CC[C@H](O)CC3)CC2)nc1C [Compound 9.19, trans-N-(3-(2-Cyclopropylthiazol-5-yl)phenyl)-4-hydroxy-N-((trans-4-(5-methoxy-6-methylpyridin-2-yl)cyclohexyl)methyl)cyclohexanecarboxamide] | ≤ 0.25 |
| COc1ncc(-c2cccc(N(C[C@H]3CC[C@H](c4ccc(OC)c(C)n4)CC3)C(=O)[C@H]3CC[C@H](O)CC3)c2)s1 [Compound 9.02, trans-4-Hydroxy-N-((trans-4-(5-methoxy-6-methylpyridin-2-yl)cyclohexyl)methyl)-N-(3-(2-methoxythiazol-5-yl)phenyl)cyclohexanecarboxamide] | ≤ 0.25 |
| COc1ncc(-c2cccc(N(C[C@H]3CC[C@H](c4ccc5c(c4)OCO5)CC3)C(=O)[C@H]3CC[C@H](O)CC3)c2)s1 [Compound 9.14, trans-N-((trans-4-(Benzo[d][1,3]dioxol-5-yl)cyclohexyl)methyl)-4-hydroxy-N-(3-(2-methoxythiazol-5-yl)phenyl)cyclohexanecarboxamide] | ≤ 0.25 |
| COc1ccc([C@H]2CC[C@H](CN(c3cccc(C#Cc4cncs4)c3)C(=O)[C@H]3CC[C@H](O)CC3)CC2)cc1C [Compound 8.01, trans-4-Hydroxy-N-((trans-4-(4-methoxy-3-methylphenyl)cyclohexyl)methyl)-N-(3-(thiazol-5-ylethynyl)phenyl)cyclohexanecarboxamide] | ≤ 0.25 |
| COc1ccc([C@H]2CC[C@H](CN(c3cccc(-c4cnc(CCO)s4)c3)C(=O)[C@H]3CC[C@H](O)CC3)CC2)cc1C [Compound 7.20, trans-4-Hydroxy-N-(3-(2-(2-hydroxyethyl)thiazol-5-yl)phenyl)-N-((trans-4-(4-methoxy-3-methylphenyl)cyclohexyl)methyl) cyclohexanecarboxamide] | 0.25 to 1 |
| Cn1ncc2cc([C@H]3CC[C@H](CN(c4cccc(-c5cnc(C6CC6)s5)c4)C(=O)[C@H]4CC[C@H](O)CC4)CC3)ccc21 [Compound 9.16, trans-N-(3-(2-Cyclopropylthiaol-5-yl)phenyl)-4-hydroxy-N-((trans-4-(1-methyl-1H-indazol-5-yl)cyclohexyl)methyl)cyclohexanecarboxamide] | ≤ 0.25 |
| O=C([C@H]1CC[C@H](O)CC1)N(C[C@H]1CC[C@H](c2ccc3c(c2)OCO3)CC1)c1cccc(-c2cnc(C3CC3)s2)c1 [Compound 9.25, trans-N-((trans-4-(Benzo[d][1,3]dioxol-5-yl)cyclohexyl)methyl)-N-(3-(2-cyclopropylthiazol-5-yl)phenyl)-4-hydroxycyclohexanecarboxamide] | ≤ 0.25 |
